Where two headings read alike, the source gives them in different places.
Key:
[1] = test system: A375-NRAS^Q61K cells; assay: CTGlo Cell Viability Assay, A375-NRAS^Q61K (A375.11) cells, 96 hours; type: cell-based, human; details: A375.11 (A375-NRAS^Q61K) cells; for Emax / CTGlo A375.11 96 hours Emax: lowest % viability achieved
Method in brief: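 Viability as CellTiter-Glo ATP luminescence after 96 h compound exposure at 37 °C; A375.11 (BRAF V600E/NRAS Q61K) cells at 250/well, top final concentration 10 μM in half-log steps. Signal was background-corrected and set relative to DMSO controls. A 4-parameter logistic fit gave GI50 (50% crossing) and Emax.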

[2] = target: T1, BRAF V600E (Homo sapiens, UniProt P15056+Q96SW2, V600E); assay: BRAF V600E HiBiT Degradation Assay; type: cell-based; details: A375.10 cells, BRAF V600E
T1 construct: knock-in of the HiBiT tag to the endogenous BRAF V600E locus; host or cells: A375.10 (A375 clonal line, CRISPR HiBiT knock-in at the endogenous BRAF V600E locus)
Method in brief: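 Endogenous HiBiT knock-in on BRAF V600E in A375 cells (clone A375.10); 11-point half-log series, top 10 μM, 2, 6 or 24 h at 37° C. Lytic HiBiT luminescence, background-subtracted, normalized to DMSO; 4-parameter fit gives DC50, Emax (residual protein) and IP (inflection point).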

[3] = 2 hours, inflection point, read-out: HiBiT-Degradation A375.10 BRAF 2 hours IP
[4] = 2 hours, read-out: HiBiT-Degradation A375.10 BRAF 2 hours DC50
[5] = 2 hours, residual protein remaining, read-out: HiBiT-Degradation A375.10 BRAF 2 hours Emax
[6] = HiBiT, 24 hours, read-out: HiBiT-Degradation A375.10 BRAF 24 hours DC50
[7] = HiBiT, 24 hours, read-out: HiBiT-Degradation A375.10 BRAF 24 hours Emax
[8] = HiBiT, 24 hours, read-out: HiBiT-Degradation A375.10 BRAF 24 hours IP
[9] = 2 hours, residual protein remaining

T1 sequence (P15056 whole entry V600E): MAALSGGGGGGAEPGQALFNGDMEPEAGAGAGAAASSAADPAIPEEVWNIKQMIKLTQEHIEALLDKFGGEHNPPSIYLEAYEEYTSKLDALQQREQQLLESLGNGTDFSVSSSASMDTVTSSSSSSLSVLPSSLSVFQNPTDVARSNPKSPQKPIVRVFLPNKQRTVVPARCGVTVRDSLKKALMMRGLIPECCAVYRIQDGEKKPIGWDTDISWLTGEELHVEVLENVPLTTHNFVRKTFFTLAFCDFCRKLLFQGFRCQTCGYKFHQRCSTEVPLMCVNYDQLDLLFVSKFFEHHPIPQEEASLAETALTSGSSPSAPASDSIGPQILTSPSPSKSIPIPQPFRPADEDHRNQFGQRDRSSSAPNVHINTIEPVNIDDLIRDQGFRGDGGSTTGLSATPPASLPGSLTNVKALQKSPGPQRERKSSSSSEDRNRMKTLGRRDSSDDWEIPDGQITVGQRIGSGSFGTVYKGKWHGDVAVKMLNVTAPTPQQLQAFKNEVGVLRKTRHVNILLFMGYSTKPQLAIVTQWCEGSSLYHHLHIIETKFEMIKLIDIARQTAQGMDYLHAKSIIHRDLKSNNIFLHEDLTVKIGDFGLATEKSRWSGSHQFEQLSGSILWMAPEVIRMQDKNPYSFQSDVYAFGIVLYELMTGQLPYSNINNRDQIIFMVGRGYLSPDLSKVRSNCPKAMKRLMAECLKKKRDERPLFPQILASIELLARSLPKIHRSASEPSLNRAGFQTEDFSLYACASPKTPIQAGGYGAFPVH
T1 sequence (Q96SW2 whole entry): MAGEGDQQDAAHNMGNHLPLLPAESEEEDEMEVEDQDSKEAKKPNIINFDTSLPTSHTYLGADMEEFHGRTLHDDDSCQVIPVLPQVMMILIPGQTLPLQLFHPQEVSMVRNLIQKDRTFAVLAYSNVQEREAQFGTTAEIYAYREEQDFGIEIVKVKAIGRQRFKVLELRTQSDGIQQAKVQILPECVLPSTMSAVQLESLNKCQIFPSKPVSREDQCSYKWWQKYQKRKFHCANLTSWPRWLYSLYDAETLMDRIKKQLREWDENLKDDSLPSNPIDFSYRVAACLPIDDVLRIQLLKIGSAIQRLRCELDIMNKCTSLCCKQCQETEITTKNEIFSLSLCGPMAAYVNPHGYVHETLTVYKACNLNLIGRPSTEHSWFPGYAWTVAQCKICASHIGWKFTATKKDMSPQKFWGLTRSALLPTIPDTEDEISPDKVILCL
T1 sequence (Q16531 whole entry partner): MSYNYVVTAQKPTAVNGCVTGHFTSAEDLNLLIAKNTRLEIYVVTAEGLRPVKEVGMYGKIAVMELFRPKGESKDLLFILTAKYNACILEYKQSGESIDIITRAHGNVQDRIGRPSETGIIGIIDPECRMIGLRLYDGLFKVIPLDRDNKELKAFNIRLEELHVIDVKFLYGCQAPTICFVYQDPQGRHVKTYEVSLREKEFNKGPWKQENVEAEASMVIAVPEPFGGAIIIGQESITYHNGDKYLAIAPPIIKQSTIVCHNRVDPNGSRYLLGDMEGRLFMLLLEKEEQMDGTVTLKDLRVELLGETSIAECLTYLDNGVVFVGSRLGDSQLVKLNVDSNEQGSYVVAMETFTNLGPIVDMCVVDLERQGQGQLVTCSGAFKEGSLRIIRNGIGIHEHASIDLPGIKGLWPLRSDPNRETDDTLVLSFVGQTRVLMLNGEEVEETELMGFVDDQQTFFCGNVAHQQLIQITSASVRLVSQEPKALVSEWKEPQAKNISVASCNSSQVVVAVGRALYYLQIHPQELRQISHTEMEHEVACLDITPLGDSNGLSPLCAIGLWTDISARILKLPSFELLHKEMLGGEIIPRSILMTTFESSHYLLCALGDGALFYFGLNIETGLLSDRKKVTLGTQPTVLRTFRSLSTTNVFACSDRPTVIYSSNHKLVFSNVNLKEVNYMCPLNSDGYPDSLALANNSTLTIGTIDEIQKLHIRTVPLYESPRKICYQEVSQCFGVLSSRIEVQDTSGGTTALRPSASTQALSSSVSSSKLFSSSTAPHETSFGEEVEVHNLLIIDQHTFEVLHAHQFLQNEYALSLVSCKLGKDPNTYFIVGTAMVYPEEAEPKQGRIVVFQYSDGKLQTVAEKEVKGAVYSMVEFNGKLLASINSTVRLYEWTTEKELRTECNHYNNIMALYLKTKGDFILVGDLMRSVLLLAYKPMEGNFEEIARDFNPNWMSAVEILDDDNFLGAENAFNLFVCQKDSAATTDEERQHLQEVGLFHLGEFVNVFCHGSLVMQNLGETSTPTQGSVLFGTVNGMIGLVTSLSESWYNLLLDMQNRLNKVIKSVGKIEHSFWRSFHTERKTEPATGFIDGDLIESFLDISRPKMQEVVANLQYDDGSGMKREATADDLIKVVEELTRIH

SMILES | GI50 ([1]; Homo sapiens, 96 h) [µM] | Emax ([1]; Homo sapiens, 96 h) [%] | DC50 [2, 3] [µM] | DC50 [2, 4] [µM] | Emax [2, 5] [%] | DC50 [2, 6] [µM] | Emax [2, 7] [%] | DC50 [2, 8] [µM] | GI50 [1] [µM] | CTGlo A375.11 96 hours Emax [1] | HiBiT-Degradation A375.10 BRAF 2 hours Emax [2, 9] | HiBiT-Degradation A375.10 BRAF 24 hours Emax ([2]; HiBiT, 24 hours) | DC50 ([2]; read-out: HiBiT-Degradation A375.10 BRAF 2 hours DC50, 2 hours) [µM] | DC50 ([2]; read-out: HiBiT-Degradation A375.10 BRAF 2 hours IP, 2 hours, inflection point) [µM]
CCN(C)S(=O)(=O)Nc1ccc(F)c(Oc2ccc3ncn(C4CC5(CCN(CC6(O)CCN(c7cc8c(cc7F)c(N7CCC(=O)NC7=O)nn8C)CC6)CC5)C4)c(=O)c3c2)c1C#N [Compound 226, 6-[2-cyano-3-[[ethyl(methyl)sulfamoyl]amino]-6-fluoro-phenoxy]-3-[7-[[1-[3-(2,4-dioxohexahydropyrimidin-1-yl)-5-fluoro-1-methyl-indazol-6-yl]-4-hydroxy-4-piperidyl]methyl]-7-azaspiro[3.5]nonan-2-yl]-4-oxo-quinazoline] | < 1 | 50 to 90 | < 1 | < 1 | < 50 | < 1 | < 50 | < 1 |  |  |  |  |  | 
CCN(C)S(=O)(=O)Nc1ccc(F)c(Oc2ccc3ncn(C4[C@H]5CN(C6CCC(c7cc8c(cc7F)c(N7CCC(=O)NC7=O)nn8C)CC6)C[C@@H]45)c(=O)c3c2)c1C#N (single isomer, unassigned) [Compound 240] | 1 to 10 | 50 to 90 | < 1 | < 1 | < 50 |  |  |  |  |  |  |  |  | 
CCN(C)S(=O)(=O)Nc1ccc(F)c(Oc2ccc3ncn(C4CC5(CC(N6CC[C@@H](c7cc8c(cc7F)c(N7CCC(=O)NC7=O)nn8C)C(F)(F)C6)C5)C4)c(=O)c3c2)c1C#N (stereo partly drawn) [Compound 227, 6-[2-cyano-3-[[ethyl(methyl)sulfamoyl]amino]-6-fluoro-phenoxy]-3-[2-[(4S)-4-[3-(2,4-dioxohexahydropyrimidin-1-yl)-5-fluoro-1-methyl-indazol-6-yl]-3,3-difluoro-1-piperidyl]spiro[3.3]heptan-6-yl]-4-oxo-quinazoline] | 1 to 10 | 50 to 90 | < 1 | < 1 | < 50 |  |  |  |  |  |  |  |  | 
CCN(C)S(=O)(=O)Nc1ccc(F)c(Oc2ccc3ncn([C@@H]4CO[C@@]5(CCN(C6CCC(c7cc8c(cc7F)c(N7CCC(=O)NC7=O)nn8C)CC6)C5)C4)c(=O)c3c2)c1C#N (single isomer, unassigned) [Compound 287] |  |  |  |  |  | < 1 | < 50 | < 1 | < 1 | *** (<=50%) | *** (<=50%) |  |  | 
CCN(C)S(=O)(=O)Nc1ccc(F)c(Oc2ccc3ncn(CCC4CCN(C5CCC(c6cc7c(cc6F)c(N6CCC(=O)NC6=O)nn7C)CC5)CC4)c(=O)c3c2)c1C#N (single isomer, unassigned) [Compound 138, 6-[2-cyano-3-[[ethyl(methyl)sulfamoyl]amino]-6-fluoro-phenoxy]-3-[2-[1-[4-[3-(2,4-dioxohexahydropyrimidin-1-yl)-5-fluoro-1-methyl-indazol-6-yl]cyclohexyl]-4-piperidyl]ethyl]-4-oxo-quinazoline] |  |  | < 1 | 1 to 10 |  |  |  |  | 1 to 10 | ** (<90% and >50%) | ** (<90% and >50%) |  |  | 
CCN(C)S(=O)(=O)Nc1ccc(F)c(Oc2ccc3ncn(CCC4CCN(C5CCC(c6ccc(NC7CCC(=O)NC7=O)cc6F)CC5)CC4)c(=O)c3c2)c1C#N (single isomer, unassigned) [Compound 153, 6-[2-cyano-3-[[ethyl(methyl)sulfamoyl]amino]-6-fluoro-phenoxy]-3-[2-[1-[4-[4-[(2,6-dioxo-3-piperidyl)amino]-2-fluoro-phenyl]cyclohexyl]-4-piperidyl]ethyl]-4-oxo-quinazoline] | > 10 | 50 to 90 | < 1 | 1 to 10 | 50 to 90 |  |  |  |  |  |  |  |  | 
CCN(C)S(=O)(=O)Nc1ccc(F)c(Oc2ccc3ncn([C@@H]4CO[C@@]5(CCN(C6CCC(c7cc8c(cc7F)c(N7CCC(=O)NC7=O)nn8C)CC6)C5)C4)c(=O)c3c2)c1C#N (single isomer, unassigned) [Compound 286] | < 1 | < 50 | < 1 | < 1 | < 50 |  |  |  |  |  |  | *** (<=50%) |  | 
CCN(C)S(=O)(=O)Nc1ccc(F)c(Oc2ccc3ncn(C4CC5(CCN(C6CC7(CCN(c8cc9c(cc8F)c(N8CCC(=O)NC8=O)nn9C)CC7)C6)C5)C4)c(=O)c3c2)c1C#N (centres unmarked) [Compound 266, 6-[2-cyano-3-[[ethyl(methyl)sulfamoyl]amino]-6-fluoro-phenoxy]-3-[6-[7-[3-(2,4-dioxohexahydropyrimidin-1-yl)-5-fluoro-1-methyl-indazol-6-yl]-7-azaspiro[3.5]nonan-2-yl]-6-azaspiro[3.4]octan-2-yl]-4-oxo-quinazoline] | > 10 | 50 to 90 | < 1 | < 1 | 50 to 90 |  |  |  |  |  |  |  |  | 
CCN(C)S(=O)(=O)Nc1ccc(F)c(Oc2ccc3ncc(CC4CCN(C5CCC(c6ccc(NC7CCC(=O)NC7=O)cc6F)CC5)CC4)nc3c2)c1C#N (single isomer, unassigned) [Compound 147, 7-[2-cyano-3-[[ethyl(methyl)sulfamoyl]amino]-6-fluoro-phenoxy]-2-[[1-[4-[4-[(2,6-dioxo-3-piperidyl)amino]-2-fluoro-phenyl]cyclohexyl]-4-piperidyl]methyl]quinoxaline] | > 10 | 50 to 90 | < 1 | > 10 | 50 to 90 |  |  |  |  |  |  |  |  | 
CCN(C)S(=O)(=O)Nc1ccc(F)c(Oc2ccc3ncn(C4CCN(C5CC6(CCN(c7cc8c(cc7F)c(N7CCC(=O)NC7=O)nn8C)CC6)C5)CC4)c(=O)c3c2)c1C#N [Compound 274, 6-[2-cyano-3-[[ethyl(methyl)sulfamoyl]amino]-6-fluoro-phenoxy]-3-[1-[7-[3-(2,4-dioxohexahydropyrimidin-1-yl)-5-fluoro-1-methyl-indazol-6-yl]-7-azaspiro[3.5]nonan-2-yl]-4-piperidyl]-4-oxo-quinazoline] | < 1 | < 50 | < 1 | < 1 | < 50 |  |  |  |  |  |  |  |  | 
Cn1nc(N2CCC(=O)NC2=O)c2cc(F)c(C3CCC(N4CCC5(CC4)CC(c4cnc6ccc(Oc7c(F)ccc(NS(=O)(=O)C8CCCC8)c7C#N)cc6n4)C5)CC3)cc21 (single isomer, unassigned) [Compound 270, N-[2-cyano-3-[3-[7-[4-[3-(2,4-dioxohexahydropyrimidin-1-yl)-5-fluoro-1-methyl-indazol-6-yl]cyclohexyl]-7-azaspiro[3.5]nonan-2-yl]quinoxalin-6-yl]oxy-4-fluoro-phenyl]cyclopentanesulfonamide] | < 1 | 50 to 90 |  |  | < 50 |  |  |  |  |  |  |  | < 1 | < 1
CCN(C)S(=O)(=O)Nc1ccc(F)c(Oc2ccc3ncn([C@@H]4COC5(C4)CN(C4CC6(C4)CN(c4cc7c(cc4F)c(N4CCC(=O)NC4=O)nn7C)C6)C5)c(=O)c3c2)c1C#N [Compound 311, (7S)-7-[6-[2-cyano-3-[[ethyl(methyl)sulfamoyl]amino]-6-fluoro-phenoxy]-4-oxo-quinazolin-3-yl]-2-[2-[3-(2,4-dioxohexahydropyrimidin-1-yl)-5-fluoro-1-methyl-indazol-6-yl]-2-azaspiro[3.3]heptan-6-yl]-5-oxa-2-azaspiro[3.4]octane] | 1 to 10 | 50 to 90 | < 1 | 1 to 10 | 50 to 90 | < 1 | < 50 | < 1 |  |  |  |  |  | 

— US20260297060A1, “COMPOUNDS FOR THE DEGRADATION OF MUTANT BRAF” (C4 THERAPEUTICS, INC., priority 2023, published 2026)
